Measured values as given in PubChem BioAssay (NCI).
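All cell lines were grown in 96-well plates and treated with compound for 48 hours. Here, GI50 denotes the concentration required for 50% inhibition of growth. TGI: concentration producing complete growth inhibition.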

Legend:
Assay in all cases: NCI tumour cell line growth inhibition, 48 h
[1] = tested on: SR leukemia
[2] = tested on: K-562 leukemia
[3] = tested on: OVCAR-4 ovarian
[4] = tested on: MALME-3M melanoma
[5] = tested on: 786-0 renal
[6] = tested on: SW-620 colon
[7] = tested on: HCT-15 colon
[8] = tested on: ACHN renal
[9] = tested on: MDA-MB-231 breast
[10] = tested on: HCC-2998 colon

SMILES	TGI [1] [µM]	TGI [2] [µM]	TGI [3] [µM]	TGI [4] [µM]	TGI [5] [µM]	TGI [6] [µM]	TGI [7] [µM]	TGI [8] [µM]	TGI [9] [µM]	GI50 [8] [µM]	GI50 [2] [µM]	GI50 [3] [µM]	GI50 [9] [µM]	GI50 [5] [µM]	GI50 [6] [µM]	GI50 [7] [µM]	GI50 [10] [µM]	TGI [10] [µM]	GI50 [1] [µM]	GI50 [4] [µM]
Cc1c(/C=N/NS(=O)(=O)c2ccccc2)no[n+]1[O-]	> 100	> 100	> 100	> 100	> 100	> 100	> 100													
CCCC1c2c(ccc3ccccc23)Oc2ccc3ccccc3c21			> 100	> 100	> 100	> 100	> 100	> 100	> 100											
CCOP(=O)(OCC)C(NC(c1ccccc1)c1ccccc1)c1ccccc1 (configuration not stated)		22.2	> 100		29.2	31.7	27.6	26.3	26.3	13.2	7.4	51.8	10.6	14.6	15	13.7	14.8	29.5		
CCOc1ccc(N=Cc2cccc3cccnc23)cc1		82.3	> 100	> 100	> 100	> 100	> 100	> 100										> 100		
CC(=O)O[C@H]1C(=O)[C@@]2(C)C(C(OC(=O)c3ccccc3)[C@]3(O)CC(OC(=O)[C@H](OC(=O)CCC(=O)O)C(NC(=O)c4ccccc4)c4ccccc4)C(C)=C1C3(C)C)C1(OC(C)=O)COC1C[C@@H]2OC(=O)CCC(=O)O (some centres not stated)	> 23.3		> 100	> 100	> 100	> 100	> 100	> 100										42.4	< 0.0202	
CC(O)/C=C/C(CCC(C)CO)C(C)C (configuration not stated)		> 100	> 100	> 100	> 100	> 100	> 100	> 100										> 100		
Oc1ccc(/C=N\Nc2ccccn2)c(O)c1	11.7	> 100	> 100		> 100	> 100	> 100	2.82		0.338	0.482	2.87		1.53	1.52	0.533	3	> 100	0.311	
COc1ccc(C=C2C(=O)OC(C)(C)OC2=O)cc1OC		> 100	> 100	> 100	> 100	> 100	> 100	> 100										> 100		
CCCCCCCCCCCCCCCCCC(=O)OCC(CN(C)CCN(C)C)OC(=O)CCCCCCCCCCCCCCCCC (configuration not stated)	64.2	> 100	> 100	> 100	> 100	> 100	> 100	> 100										> 100		
COc1ccc(/C=N/N=C(\N)NO)cc1OC	> 100	> 100	> 100	> 100	> 100	> 100	> 100	> 100										> 100		
N#CC(=S)Nc1cccc(Cl)c1		> 100	> 100	> 100	> 100	> 100	> 100	> 100	> 100									83.1		
O=S(=O)([O-])c1cccc2cccc(N=Cc3ccccc3[O-])c12.O=S(=O)([O-])c1cccc2cccc(N=Cc3ccccc3[O-])c12.[O]=[U]=[O]		> 100	> 100	> 100	> 100	> 100	> 100	> 100		38.5	35.5	41.6		33.7	42.1	49				> 100
OCCCCC#Cc1ccccc1C#Cc1ccccc1		> 100	53.2	32.1	22.5	34.4	24.2	29.1	14.1	15.2	22.1	18	4.29	8.6	15.7	11.7	16.8	43.6		16.9
O=C1C=C[C@@]23CC1C(O)C[C@H]2C=Cc1ccccc13 (some centres not stated)		> 100	> 100	> 100	> 100	> 100	> 100	> 100										> 100		
C/C(O)=C(\N=O)C(=O)NCCc1ccccc1	> 100	> 100	> 100	> 100	> 100	> 55.2	> 55.9	> 100										> 100		
Cc1ccc(NC(=O)CC2C(=O)Nc3ccccc3S2=O)cc1C (configuration not stated)	> 100	> 100	34.3	> 100	68.8	> 100	> 100	> 100										> 100		
Cc1cccc(C(C)(C)C)c1NC(=O)C(=O)C(C(=O)/C=C\c1ccccc1)C1OC(=O)c2ccccc21 (configuration not stated)	> 100	> 100	> 100	> 100	> 100	> 100	> 100	> 100										> 100		
Clc1ccc(-n2nnc(C3=NCCN3)c2-c2ccccc2)cc1	> 100	> 100	> 100	> 100	> 100	> 100	> 100	> 100										> 100		
Cc1ccccc1-c1c(N)nc(NC#N)nc1C(=O)Nc1ccccc1	> 100	> 100	> 100	> 100	> 100	> 100	> 100	> 100										> 100		
[Cl][Bi]([O]c1ccccn1)[O]c1ccccn1	> 100		> 100	> 100	> 100	> 100	> 100	> 100		> 100		> 100		> 100	> 100	> 100	> 100	> 100	> 100	> 100
